Measured values reported in patent US12616201B2, “Herbicidal compositions comprising isoxaflutole” (BASF SE, priority 2024, dated 2026).

Experiments:
[1] = tested on: Chenopodium album; experiment: Post-emergence application in field trials, CHEAL; type: in vivo; conditions: Table 5.22; 7 DAT; height 10-25 cm; C-19 70 g ai/ha
Procedure: (§1) In the examples below, using the method of S. R. Colby (1967) “Calculating synergistic and antagonistic responses of herbicide combinations”, Weeds 15, p. 22ff., the value E, which is expected if the activity of the individual active compounds is only additive, was calculated:
(§2) [formula] • where • X=percent activity using active herbicide A at an application rate a; • Y=percent activity using active herbicide B (i.e. isoxaflutole) at an application rate b; • E=expected activity (in %) by A+B at application rates a+b.
(§3) If the value found experimentally is higher than the value E calculated according to Colby, a synergistic effect is present.
(§4) On field test sites, natural weed infestation or seeded weeds were treated post-emergence of the weeds.
(§5) In the field trials, the weeds were treated as indicated below.
In the following experiments, the herbicidal activity for the individual herbicidal compositions (solo and mixture applications) was assessed at the indicated days after treatment (DAT). The assessments for the damage on undesired weeds caused by the composition was carried out using a scale from 0 to 100%, compared to the untreated control plants. Here, 0 means no damage and 100 means complete destruction of the plants. […]

[2] = tested on: HORVW; experiment: Post-emergence application in field trials, HORVW; type: in vivo, Hordeum vulgare
Procedure: as §1, §2, §3, §4, §5
(§6) In the following experiments, the herbicidal activity for the individual herbicidal compositions (solo and mixture applications) was assessed at the indicated days after treatment (DAT). The assessments for the damage on undesired weeds caused by the composition was carried out using a scale from 0 to 100%, compared to the untreated control plants. Here, 0 means no damage and 100 means complete destruction of the plants.
(§7) Herbicide A-1, isoxaflutole (240 g/l SC), saflufenacil (342 g/l) and pyroxasulfone were, together with addition of 0.25 v/v % MSO (methylated sed oil) as adjuvant, formulated in water as distribution medium (water volume 200 l/ha) and sprayed with commercial flat fan nozzles.

[3] = tested on: Echinochloa crus-galli; experiment: Post-emergence application in field trials, ECHCG; type: in vivo
Procedure: as §1, §2, §3, §4, §5, §6
(§8) Herbicide A-1 and isoxaflutole (240 g/l SC) were, together with addition of 0.25 v/v % MSO (methylated sed oil) as adjuvant, formulated in water as distribution medium (water volume 200 l/ha) and sprayed with commercial flat fan nozzles.
(§9) Herbicide A-1 and isoxaflutole (240 g/l SC, Balance Flexx®) were, together with addition of 0.25 v/v % MSO (methylated sed oil) as adjuvant, formulated in water as distribution medium (water volume 200 l/ha) and sprayed with commercial flat fan nozzles.
(§10) Herbicide A-1, isoxaflutole (240 g/l SC) and saflufenacil (342 g/l) were, together with addition of 0.25 v/v % MSO (methylated sed oil) as adjuvant, formulated in water as distribution medium (water volume 200 l/ha) and sprayed with commercial flat fan nozzles.
as §7

[4] = tested on: Lolium multiflorum; experiment: Post-emergence application in field trials, LOLMU; type: in vivo
Procedure: as §1, §2, §3, §4, §5, §6, §7

[5] = tested on: Amaranthus retroflexus; experiment: Post-emergence application in field trials, AMARE; type: in vivo; conditions: 7 DAT
Procedure: as §1, §2, §3, §4, §5, §6, §9, §7

[6] = tested on: Zea mays; experiment: Post-emergence application in field trials, ZEAMX; type: in vivo
Procedure: as §1, §2, §3, §4, §5, §6, §8, §9, §10, §7

[7] = Table 5.23, 21 DAT, height 20-25 cm, C-19 70 g ai/ha

Measured: % herbicidal activity

Cn1nc(C(F)(F)F)c(CS(=O)(=O)C2=NOC(C)(C)C2)c1OC(F)F [C-19, pyroxasulfone]
30%: [3]; Table 5.24, 28 DAT, height 15-20 cm, C-19 70 g ai/ha
10%: [1] | [5]; Table 5.22, height 8-20 cm, C-19 70 g ai/ha | [5]; Table 5.4, AMARE height 8-20 cm, 70 g ai/ha
40%: [3]; Table 5.23, 21 DAT, height 15-20 cm, C-19 70 g ai/ha | [4]; [7]
4%: [6]; Table 5.23, 21 DAT, height 25-30 cm, C-19 70 g ai/ha | [6]; Table 5.5, ZEAMX height 25-30 cm, 21 DAT, 70 g ai/ha
20%: [3]; Table 5.4, ECHCG height 15-20 cm, 7 DAT, 70 g ai/ha | [4]; Table 5.1, LOLMU height 20-25 cm, 7 DAT, 70 g ai/ha | [4]; Table 5.22, 7 DAT, height 20-25 cm, C-19 70 g ai/ha | [4]; Table 5.4, LOLMU height 20-25 cm, 7 DAT, 70 g ai/ha
5%: [6]; Table 5.10, 7 DAT, height 25-30 cm, C-19 70 g ai/ha | [6]; Table 5.22, 7 DAT, height 25-30 cm, C-19 70 g ai/ha | [6]; Table 5.4, ZEAMX height 25-30 cm, 7 DAT, 70 g ai/ha
0%: [2]; Table 5.2, HORVW height 20-25 cm, 21 DAT, 70 g ai/ha | [2]; [7] | [2]; Table 5.24, 28 DAT, height 20-25 cm, C-19 70 g ai/ha | [2]; Table 5.3, HORVW height 20-25 cm, 28 DAT, 70 g ai/ha | [2]; Table 5.5, HORVW height 20-25 cm, 21 DAT, 70 g ai/ha | [2]; Table 5.6, HORVW height 20-25 cm, 28 DAT, 70 g ai/ha | [6]; Table 5.24, 28 DAT, height 25-30 cm, C-19 70 g ai/ha | [6]; Table 5.6, ZEAMX height 25-30 cm, 28 DAT, 70 g ai/ha
